Drawing on patent publication US3987197A, “3-(2'-Fluoro-4-biphenylyl)-butyric acid and salts thereof” (Boehringer Ingelheim GmbH, priority 1972, dated 1976), this text covers ED35, LD50 and selectivity ratio for one molecule.

Data set [1] deals with kaolin edema of the hind paws of the rat. The data set is described as follows: kaolin edema of the hind paw of the rat, anti-exudative effect, oral. The data set is classed as in vivo. Conditions: 5 h, male FW 49-rats, oral 30 minutes before edema, 35% reduction of swelling five hours after provocation, graphic extrapolation, read-out: kaolin edema ED35 per os. On the procedure: (§1) The compounds were tested by standard test methods for their anti-exudativeeffects on the kaolin edema and carrageenin edema of the hind paws of the rat and for their acute toxicity by oral administration to rats.
The kaolin edema was induced according to the method of Hillebrecht [Arzneimitted-Forsch. 4, 607 (1954)] by subplantary injection of 0.05 ml of a 10% suspension of kaolin in a 0.85% sodium chloride solution. The measurement of the thickness of the paws was done by using the technique of Doepfner and Cerletti [Int. Arch. Allergy. Immunol. 12, 89 (1958)].
(§2) Male FW 49-rats of an average weight of 120-150 gm were orally treated with the test compounds 30 minutes before inducement of the edema with the aid of an esophageal tube. Five hours after the provocation of the edema the averaged values of the swelling caused in the paws of the rats treated with the compounds were compared with those values measured on blind-treated control animals. By graphic extrapolation the dose leading to a 35% reduction of the swelling (ED35) was calculated from the percent reduction values measured by administration of different doses.

The subject of data set [2] is kaolin and carrageenin edema. The data set is described as follows: antiexudative effect, average of kaolin and carrageenin edema tests. The data set is classed as in vivo. Conditions: Rattus norvegicus, po; arithmetically averaged value from ED35 kaolin edema and ED35 carrageenin edema. An excerpt: *arithmetically averaged value from ED35 kaolin edema and ED35
Background: Carrageenan injected into the paw causes an acute inflammation.

A short description of data set [3]: acute toxicity in the rat, oral. The settings on record: in vivo, male and female FW 49-rats (1:1), oral as trituration in tylose, 14 days, Litchfield and Wilcoxon, 95% confidence limits, read-out: acute toxicity in the rat LD50 per os. On the procedure: as §1
After oral administration to male and female FW 49-rats (ratio 1:1) having an average body weight of 135 gm, the acute toxicity (LD50 ) was determined. The substances were administered orally as trituration in tylose.
The calculation of the LD50 -values was effected, as far as possible, according to the method of Litchfield and Wilcoxon, based on the percentage of animals which died within 14 days after administration of the different doses.

Data set [4] concerns carrageenin edema of the hind paws of the rat. The data set is described as follows: carrageenin edema of the hind paw of the rat, anti-exudative effect, oral. The data set is classed as in vivo. Conditions: 3 h, FW 49-rats, oral 60 minutes before edema, 35% reduction of swelling three hours after provocation, graphic extrapolation, read-out: carrageenin edema ED35 per os. The protocol: as §1, §2
The provocation of the carrageenin edema was effected according to the method of Winter et al [Proc. Soc. exp. Biol. Med. 111, 544 (1962)] by subplantary injection of 0.05 ml of a 1% solution of carrageenin in a 0.85% solution of sodium chloride. The test compounds were orally administered 60 minutes before the provocation of the edema.
For the calculation of the reductive effect on the edema the values measured three hours after the provocation of the edema were used. All the other details were the same as described above in the case of the kaolin edema.

The nature of the next data set: in vivo. The settings on record: rat, po. On the procedure:
The therapeutic index, as a measure for the therapeutic usefulness, was calculated by forming the quotient of the LD50 -value and the ED35 -value derived from the tests for anti-exudative activity against the kaolin and carrageenin edema.

As usually defined, the LD50 is the dose expected to kill half of the subjects tested. `CC(CC(=O)O)c1ccc(-c2ccccc2F)cc1` (racemic) [A, 3-(2'-fluoro-4-biphenylyl)-butyric acid]: the ED35 was 19 mg/kg in data set [1], 14.8 mg/kg in data set [2] and 10.5 mg/kg in data set [4]. The 50% lethal dose (LD50) at 336 h in data set [3] was found to be 540 mg/kg. Moreover, the selectivity ratio in the data set “in vivo” was determined as 36.5.
